US8822182B2, “Chimeric antigen-specific T cell-activating polypeptides” (Mayo Foundation for Medical Education and Research, priority 2001, dated 2014)
Read-outs that look alike come from different tables or passages of the source.

Tests used:
[1] = system: TAP-deficient T2 target cells; assay: 51Cr release cytotoxicity assay, human CEA-specific CTL line, T2 targets; type: cell-based; settings: for capacity to sensitize targets for CTL lysis: 10 μM overnight, E:T 20:1, FIG. 2C; for effect of brefeldin-A (BFA) on sensitization of T2 cells: BFA 1 μg/ml, CEA-specific CTL, E:T 20:1, FIG. 4; for ability to sensitize target cells for CTL lysis: TAP-deficient targets, incubated overnight with peptide, FIG. 1B; for sensitizing activity after pre-incubation with trypsin: trypsin at 37° C., E:T 20:1, FIG. 2B
[2] = system: TAP deficient RMA-S targets; type: cell-based, mouse; settings: ConA-activated CTL, 10 μM overnight; for sensitization of targets for killing by OVA257-specific CTL: FIG. 9 left panel; for sensitization of targets for killing by 2C-specific CTL: FIG. 9 middle panel
[3] = system: TAP-deficient cells (T2/K^b); assay: Immunofluorescence and confocal microscopy of H-2K^b/OVA257 complexes, T2/K^b cells; type: cell-based, human
Experimental: (§1) T2/K^b or L-K^b cells were cultured overnight on poly-lysine treated glass coverslips. The culture medium was discarded, and the cells were gently washed with PBS. The cells were pre-incubated with serum-free AIM-V medium at 37° C. for 30 minutes and then incubated with peptide/TA solutions at the indicated concentrations for 12 hour at 37° C. After peptide loading, the cells were washed and fixed with 2% formaldehyde for 20 minutes at room temperature. For indirect immunofluorescence, fixed cell monolayers were permeabilized with 0.2% Triton X100 in PBS and incubated with PBS containing 5% goat serum to block non-specific protein binding sites. The cells were double-labeled with mouse monoclonal antibody 25D1.16 specific to OVA257/H-2K^b complex and rabbit polyclonal antibody TGN38 (TGN marker) or rabbit anti-calreticulin (ER marker), followed by 1 hour staining with FITC anti-mIgG and TR anti-rIgG as secondary antibodies. After washing, the coverslips were mounted for observation on glass slides using the Prolong Antifade Kit. The stained cells were examined and photographed with a Leica TCS-SL confocal laser-scanning microscope (Bensheim, Germany).
An antibody specific for trans-Golgi network (TGN38) was used to test whether H-2K^b/OVA257 complexes could also be detected in the trans-Golgi network of cells incubated with TA peptides. […] In these cells, antibody TGN38 stained brightly a structure corresponding to the trans-Golgi. […] These observations reinforce the findings that TA peptides need to penetrate cells in order to create MHC class I/peptide complexes. In addition, these complexes are observed in both the ER and trans-Golgi, even in TAP-deficient cells.

TAP-competent EL-4 cells = assay: Flow cytometry of surface H-2K^b/OVA257 complexes (25D1.16) with protease inhibitors, EL-4 cells; type: cell-based, mouse; settings: antigen 10 μM overnight; for effect of furin inhibitor decRVKR-CMK on expression of surface H-2K^b/OVA257 complexes (decrease): decRVKR-CMK 60 μM, FIGS. 8A-8C; for effect of lactacystin on amount of surface H-2K^b/OVA257 complexes: lactacystin 10 μM, FIGS. 6A and 6B; for effect of pepstatin-A on amounts of surface peptide/MHC class I complexes (increase): pepstatin 100 μM, FIGS. 7A and 7B
Experimental: (§2) The effects of protease inhibitors on antigen processing and presentation were evaluated by analysis of 25D1.16 staining on different antigen-pulsed EL-4 or T2/K^b cells using flow cytometric analysis. In brief, EL-4 or T2/K^b cells were washed twice with serum-free AIM-V medium (Life Technologies, Rockville, Md.), pre-treated with protease inhibitors (10 μM lactacycstin, 100 μM pepstatin or 60 μM decRVKR-CMK) for 30 minutes and then pulsed with equimolar concentrations of different (as indicated) peptides at 37° C. overnight with the continuous presence of the corresponding protease inhibitors. The serum-free AIM-V medium was used in order to exclude the potential involvement of serum proteases during the peptide-pulsing process. After washing the cells twice with FACS buffer (PBS (phosphate buffered saline) supplemented with 2% FBS and 0.2% sodium azide), peptide-loaded APC were stained with 25D1.16 antibody followed by FITC anti-mIgG for flow analysis. Untreated EL-4 and T2/K^b cells were pulsed with peptides and stained as controls.

[4] = system: TAP-deficient T2/K^b cells; assay: Flow cytometry of surface H-2K^b/OVA257 complexes (25D1.16) with protease inhibitors, T2/K^b cells; type: cell-based, human; settings: antigen 10 μM overnight; for effect of furin inhibitor decRVKR-CMK on expression of surface H-2K^b/OVA257 complexes (decrease): decRVKR-CMK 60 μM, FIGS. 8D-8F; for effect of lactacystin on level of surface H-2K^b/OVA257 complexes (increase): lactacystin 10 μM, FIGS. 6C and 6D; for effect of pepstatin-A on amounts of surface peptide/MHC class I complexes (increase): pepstatin 100 μM, FIGS. 7C and 7D
Experimental: as §2
The data described above indicate that TA can be processed in various cellular compartments to produce small peptide epitopes that subsequently associate with MHC class I molecules and the resulting peptide-MHC class I complexes are then transported to the cell surface. Antigen processing could take place: (1) in the cytoplasm, via proteasomal degradation followed by TAP transport; (2) within the ER, where peptide trimming via an aminopeptidase could occur; (3) in the trans-Golgi, where processing of antigens through proteases such as furin can occur; and/or (4) in early endocytic compartments, where peptides that could either bind to recycling MHC class I molecules or leak into other compartments of the MHC class I pathway can be generated. Utilizing antibody 25D1.16, we studied the effects of various inhibitors of antigen processing in the formation of H-2K^b/OVA257 surface complexes by peptides OVA257-HIVtat and HIVtat-OVA257.

[5] = system: TAP-expressing 221.A2 target cells; type: cell-based, human
[6] = system: TAP-deficient T2 target cells; type: cell-based, human
[7] = system: TAP-expressing 221.A2 target cells; assay: 51Cr release cytotoxicity assay, human CEA-specific CTL line, 221.A2 targets; type: cell-based; settings: TAP-competent targets, incubated overnight with peptide, FIG. 1A
C57BL/6 mice = type: in vivo, mouse; settings: 50 μg in IFA; spleen and lymph node cells cultured with IL-2 for 7 days, FIG. 12
[8] = system: TAP-deficient RMA-S target cells; type: cell-based, mouse; settings: peptide epitope-activated CTL; for sensitization of targets for lysis by LCMV-specific CTL: FIG. 10C (right panel)
[9] = system: TAP-competent cells expressing H-2K^b (L-K^b); assay: Immunofluorescence and confocal microscopy of H-2K^b/OVA257 complexes, TAP-competent cells; type: cell-based, mouse
Experimental: as §1
Utilizing the monoclonal antibody 25D1.16 that specifically reacts with H-2K^b/OVA257 complexes and confocal microscopy, the formation and presence of this CTL epitope in permeabilized TAP-competent and TAP-deficient cells expressing H-2K^b was evaluated. […] These cells were also stained with an antibody specific for calreticulin which is localized within the ER.

[10] = system: Murine dendritic cells (DC); assay: Persistence in dendritic cells: IFN-γ ELISA of OT-1 CTL cultured with pulsed DC; type: cell-based, mouse; settings: DC pulsed 10 μM 2 hours, washed, further 48 hours, CTL:DC 10:1 for 24 hours, FIG. 14
Experimental: Murine dendritic cells (DC) were prepared by culturing C57BL6 mouse (H-2^b) bone marrow […] in the presence of granulocyte macrophage colony stimulating factor (GM-CSF) and interleukin-4 (IL-4) by a method essentially the same as that described by Son et al. [(2002) J. Immunol. Meth. 262:145-157] except that non-adherent cells are removed from the cultures and discarded on day 2 of culture and no density gradient centrifugation step was used. Cells not adhering to the plastic tissue culture vessel at day 6 of culture were harvested and used as DC.
DC were pulsed with either the TA HIVtat-OVA257 (see Table 2) or the peptide epitope OVA257, each at a concentration of 10 μM, for 2 hours at 37° C. The cells were then washed free of the TA or peptide epitope and incubated for a further 48 hours. They were then cultured with cells of the OT-1 CTL clone (specific for H-2K^b/OVA257) at a CTL to DC ratio of 10:1 for 24 hours. Supernatants were then removed from the cultures and the relative amounts of IFN-γ in various dilutions of each supernatant were measured by ELISA (FIG. 14). […] These findings indicate that a peptide epitope persists in DC for a longer period of time when taken up by DC in the form of a TA than when taken up by DC in the form of the peptide epitope per se.

IMIGVLVGVKKK [CEA691-KKK]
capacity to sensitize targets for CTL lysis [1]: none of peptides CEA691-KKK, CEA691-RRR or CEA691-RKK were able to sensitize

SIINFEKLRVKRIKAVYNFATCGRVKRSIYRYYGLAAARKKRRQRRR [TA3-B]
sensitization of targets for killing by OVA257-specific CTL [2]: could effectively kill targets sensitized
sensitization of targets for killing by 2C-specific CTL [2]: could effectively kill targets sensitized

SIINFEKLAAARKKRRQRRR [OVA257-HIVtat]
amount of intracellular H-2K^b/OVA257 complexes ([3]; 25D1.16 staining): High amounts of intracellular H-2K^b/OVA257 complexes
localization of H-2K^b/OVA257 complexes to the trans-Golgi ([3]; 25D1.16 superimposed with TGN38 staining): majority of the H-2K^b/OVA257 complexes localized within the trans-Golgi
effect of furin inhibitor decRVKR-CMK on expression of surface H-2K^b/OVA257 complexes (decrease) (TAP-competent EL-4 cells): about 10 fold
effect of lactacystin on amount of surface H-2K^b/OVA257 complexes (TAP-competent EL-4 cells): did not have an effect
effect of pepstatin-A on amounts of surface peptide/MHC class I complexes (increase) (TAP-competent EL-4 cells): 3-5 fold
effect of furin inhibitor decRVKR-CMK on expression of surface H-2K^b/OVA257 complexes (decrease) [4]: about 10 fold
effect of lactacystin on level of surface H-2K^b/OVA257 complexes (increase) [4]: about 3 fold
effect of pepstatin-A on amounts of surface peptide/MHC class I complexes (increase) [4]: 3-5 fold

RQIKIWFPNRRMKWKKAEIDLIMDQVPFSVLRTED [AntpHD-gp100209]
sensitization of targets for lysis by gp100209-specific CTL clone [5]: efficiently sensitized
effect of brefeldin-A (BFA) on sensitization of T2 cells [6]: effective in blocking
sensitization of targets for lysis by gp100209-specific CTL clone [6]: efficiently sensitized

IMIGVLVGV (epitope) [CEA691, reference compound]
ability to sensitize target cells for CTL lysis [7]: similar, if not identical, activities
effect of brefeldin-A (BFA) on sensitization of T2 cells [1]: did not block
ability to sensitize target cells for CTL lysis [1]: similar, if not identical, activities
effect of competitor peptide HBc18-27 on sensitization of target cells for CTL lysis ([1]; antigen 1 μM, 30 minutes, E:T 20:1, FIG. 2A): efficient at inhibiting the sensitization of target cells for CTL lysis by peptide CEA691
sensitizing activity after pre-incubation with trypsin ([1]; antigen 1 μM): did not modify this peptide's sensitizing activity

RKKRRQRRRAAASVYDEFFVWLVRVVLPYLGWLVFVRVVSGPSNTPPEI [TAG]
peptide epitope-specific cytotoxic activity of effector cells from immunized mice (E1A, P1A, TRP-2 pulsed versus unpulsed RMA-S targets) (C57BL/6 mice): no significant cytotoxic activity

IMIGVLVGVRRR [CEA691-RRR]
capacity to sensitize targets for CTL lysis [1]: none of peptides CEA691-KKK, CEA691-RRR or CEA691-RKK were able to sensitize

IKAVYNFATCGVRVVSIYRYYGLVRVVSIINFEKLAAARKKRRQRRR [TA3-C]
sensitization of targets for killing by OVA257-specific CTL [2]: much less effective
sensitization of targets for killing by 2C-specific CTL [2]: much less effective
effectiveness in sensitizing RMA-S targets relative to TA3-A (less effective) ([8]; E:T 10:1, FIG. 10): at least 100 fold
sensitization of targets for lysis by CTL specific for all three peptide epitopes (OVA257, 2C, LCMV) ([8]; E:T 10:1, FIG. 10): also sensitized the RMA-S targets for lysis

IMIGVLVGVRKK [CEA691-RKK]
capacity to sensitize targets for CTL lysis [1]: none of peptides CEA691-KKK, CEA691-RRR or CEA691-RKK were able to sensitize

RKKRRQRRRIKAVYNFATCGRVKRSIINFEKLRVKRSIYRYYGL [TA3-D]
sensitization of targets for lysis by LCMV-specific CTL [8]: less effective
sensitization of targets for lysis by OVA257-specific CTL ([8]; FIG. 10 left panel): as effective as the others
sensitization of targets for lysis by 2C-specific CTL ([8]; FIG. 10 middle panel): as effective as the others

IKAVYNFATCG [LCMV, reference compound]
sensitization of targets for lysis by LCMV-specific CTL ([2]; FIG. 9 right panel): only the short minimal epitope was effective
sensitization of targets for lysis by LCMV-specific CTL [8]: relatively high amount of the peptide epitope required to sensitize

IMIGVLVGVAAARKKRRQRRR [CEA691-HIVtat]
ability to sensitize target cells for CTL lysis [7]: similar, if not identical, activities
ability to sensitize target cells for CTL lysis [1]: similar, if not identical, activities
sensitizing activity after pre-incubation with trypsin ([1]; antigen 1 μM): lost most of its activity

RKKRRQRRRAAAIMIGVLVGV [HIVtat-CEA691]
effect of brefeldin-A (BFA) on sensitization of T2 cells [1]: effective in blocking

RKKRRQRRRAAASVYDEFFVWLKVKRLPYLGWLVFKVKRSGPSNTPPEI [TA5]
peptide epitope-specific cytotoxic activity of effector cells from immunized mice (E1A, P1A, TRP-2 pulsed versus unpulsed RMA-S targets) (C57BL/6 mice): significant peptide epitope-specific cytotoxic activity was detected

RKKRRQRRRAAASIINFEKL [HIVtat-OVA257]
presence of H-2K^b/OVA257 complexes in permeabilized cells ([9]; 25D1.16 staining): abundant
H-2K^b/OVA257 complexes within the ER ([9]; 25D1.16 superimposed with calreticulin staining): abundant H-2K^b/OVA257 complexes were present within the ER
effect of furin inhibitor decRVKR-CMK on expression of surface H-2K^b/OVA257 complexes (decrease) (TAP-competent EL-4 cells): no effect was observed
effect of lactacystin on amount of surface H-2K^b/OVA257 complexes (TAP-competent EL-4 cells): did not have an effect
effect of pepstatin-A on amounts of surface peptide/MHC class I complexes (increase) (TAP-competent EL-4 cells): did not have an appreciable effect
effect of furin inhibitor decRVKR-CMK on expression of surface H-2K^b/OVA257 complexes (decrease) [4]: no effect was observed
effect of lactacystin on level of surface H-2K^b/OVA257 complexes (increase) [4]: did not have an appreciable effect
effect of pepstatin-A on amounts of surface peptide/MHC class I complexes (increase) [4]: did not have an appreciable effect
IFN-γ produced by OT-1 CTL cultured with pulsed DC [10]: a high level of IFN-γ was produced

IMDQVPSFV [gp100209, reference compound]
effect of brefeldin-A (BFA) on sensitization of T2 cells [6]: did not block
